# Results as given in patent US9580409B2, “Modulators of opioid receptors and methods of use thereof” (priority 2011, dated 2017).
# Read-outs that look alike come from different tables or passages of the source.
# Target: mu-opioid receptor (Homo sapiens, UniProt P35372)
# Test: biochemical
# Settings: read-out: GTP Activity
# [1] = […], class symbol combines EC50 and efficacy
# Chain of mu-opioid receptor (P35372 whole entry, species assumed): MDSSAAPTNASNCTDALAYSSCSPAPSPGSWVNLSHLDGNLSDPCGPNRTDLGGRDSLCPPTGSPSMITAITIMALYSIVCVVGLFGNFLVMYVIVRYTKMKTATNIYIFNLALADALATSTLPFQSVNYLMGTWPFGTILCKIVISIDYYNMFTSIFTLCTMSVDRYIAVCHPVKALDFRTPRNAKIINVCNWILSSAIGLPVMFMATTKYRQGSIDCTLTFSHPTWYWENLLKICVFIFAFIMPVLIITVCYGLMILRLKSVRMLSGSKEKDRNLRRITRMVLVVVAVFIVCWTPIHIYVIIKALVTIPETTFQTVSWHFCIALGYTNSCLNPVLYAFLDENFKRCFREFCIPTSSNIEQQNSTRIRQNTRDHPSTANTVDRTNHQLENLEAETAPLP
Structure (SMILES),EC50 (class symbols) [µM],EC50 [1] [µM]
COc1cc(OC)cc(-n2nc(N)c(-c3nc4ccccc4[nH]3)c2N)c1 [compound 66],0.1 to 1,
COC(=O)C1C(=O)C(c2nc3ccccc3[nH]2)=C(N)N1c1cc(OC)cc(OC)c1 (stereo not drawn) [compound 134],1 to 10,
COc1cc(OC)cc(N2C(N)=C(c3nc4ccccc4[nH]3)C(=O)C2CCCCN)c1 (stereo not drawn) [compound 204],,0.1 to 1
COc1ccc(OC)c(N2C(N)=C(c3nc4ccccc4[nH]3)C(=O)C2(C)C)c1 [compound 165],1 to 10,
CNC1=C(c2nc3ccccc3[nH]2)C(=O)[C@@](C)(CCO)N1c1cc(OC)cc(OC)c1 [compound 261],,0.1 to 1
COc1cc(OC)cc(N2CC(=O)C(c3cn4ccccc4n3)=C2N)c1 [compound 41],1 to 10,
CCOc1cc(OCC)cc(N2C(N)=C(c3nc4ccccc4[nH]3)C(=O)C2(C)C)c1 [compound 158],1 to 10,
COc1cc(OC)cc(N2C(N)=C(c3nc4ccccc4[nH]3)C(=O)C23CN(C(=O)c2ccccc2)C3)c1 [compound 250],,1 to 10
COc1cc(OC)cc(N2C(N)=C(c3nc4ccccc4[nH]3)C(=O)C2CCN2CCOCC2)c1 (stereo not drawn) [compound 234],,0.1 to 1
CNc1c(-c2nc3ccccc3[nH]2)c(=O)n(CCO)n1-c1cc(OC)cc(OC)c1 [compound 265],,0.1 to 1
CNC1=C(c2nc3ccccc3[nH]2)C(=O)[C@](C)(CCOC)N1c1cc(OC)cc(OC)c1 [compound 299],,0.1 to 1
COc1cc(OC)cc(N2C(N)=C(c3nc4ccccc4[nH]3)C(=O)[C@@]2(C)CCNC(C)=O)c1 [compound 302],,0.1 to 1
Cc1cc(C)cc(N2CC(=O)C(c3nc4c(C)cccc4[nH]3)=C2N)c1 [compound 14],1 to 10,
CCOc1cc(OC)cc(N2C(N)=C(c3nc4ccccc4[nH]3)C(=O)C2(C)C)c1 [compound 157],0.1 to 1,
CNC1=C(c2nc3ccccc3[nH]2)C(=O)C2(CN(C)C2)N1c1cc(OC)cc(OC)c1 [compound 193],0.1 to 1,
CNC1=C(c2nc3ccccc3[nH]2)C(=O)[C@](C)(COC)N1c1cc(OC)cc(OC)c1 [compound 297],,0.1 to 1
COc1cc(OC)cc(N2C(N)=C(c3nc4ccccc4[nH]3)C(=O)C23CN(S(C)(=O)=O)C3)c1 [compound 251],,0.1 to 1
COc1cc(OC)cc(N2C(N)=C(c3nc4ccccc4[nH]3)C(=O)C2CCOc2ccccc2)c1 (stereo not drawn) [compound 231],,1 to 10

Structure (SMILES),EC50 (class symbols) [µM],EC50 [1] [µM]
COc1cc(OC)cc(N2C(N)=C(c3nc4ccccc4[nH]3)C(=O)C23CCC3)c1 [compound 108],< 0.1,
[2H]C([2H])([2H])Oc1cc(OC([2H])([2H])[2H])cc(N2C(N)=C(c3nc4ccccc4[nH]3)C(=O)C2(C)C)c1 [compound 135],0.1 to 1,
CNC1=C(c2nc3ccccc3[nH]2)C(=O)C(C)(OC)N1c1cc(OC)cc(OC)c1 (stereo not drawn) [compound 120],0.1 to 1,
COc1cc(OC)cc(N2C(N)=C(c3nc4ccccc4[nH]3)C(=O)C2O)c1 (stereo not drawn) [compound 57],0.1 to 1,
CNc1c(-c2nc3ccccc3[nH]2)c(=O)n(CCCO)n1-c1cc(OC)cc(OC)c1 [compound 267],,< 0.1
COc1cc(OC)cc(N2C(N)=C(c3nc4ccccc4[nH]3)C(=O)C2CCCO)c1 (stereo not drawn) [compound 221],,0.1 to 1
[2H]C1CC2(CC1=O)C(=O)C(c1nc3ccccc3[nH]1)=C(NC)N2c1cc(OC)cc(OC)c1 (stereo not drawn) [compound 314],,< 0.1
COc1cc(OC)cc(N2CC(=O)C(c3nc4cscc4[nH]3)=C2N)c1 [compound 173],1 to 10,
COCCNC1=C(c2nc3ccccc3[nH]2)C(=O)C(C)(C)N1c1cc(OC)cc(OC)c1 [compound 91],1 to 10,
CNC1=C(c2nc3ccccc3[nH]2)C(=O)C2(CC(=O)C2)N1c1cc(OC)cc(OC)c1 [compound 275],,< 0.1
Cc1ccc(N2C(N)=C(c3nc4ccccc4[nH]3)C(=O)C2(C)C)c(C)c1 [compound 101],0.1 to 1,
COc1cc(OC)cc(N2C(N)=C(c3nc4ccccc4[nH]3)C(=O)C2CCN(C)C(C)=O)c1 (stereo not drawn) [compound 256],,0.1 to 1
CNC1=C(c2nc3ccccc3[nH]2)C(=O)C(C)(Cc2ccco2)N1c1cc(OC)cc(OC)c1 (stereo not drawn) [compound 280],,0.1 to 1
CNC1=C(c2nc3ccccc3[nH]2)C(=O)C(C)(C)N1c1ccc(C)cc1C [compound 104],1 to 10,
CNC1=C(c2nc3ccccc3[nH]2)C(=O)[C@]2(C[C@H](O)C2)N1c1cc(OC)cc(OC)c1 [compound 260],,0.1 to 1
CNC1=C(c2nc3ccccc3[nH]2)C(=O)[C@](C)(CNC(=O)COC)N1c1cc(OC)cc(OC)c1 [compound 317],,0.1 to 1
COc1cc(OC)cc(N2C(N)=C(c3nc4ccccc4[nH]3)C(=O)C2CO)c1 (stereo not drawn) [compound 67],1 to 10,
COc1cc(OC)cc(N2C(N)=C(c3nc4ccccc4[nH]3)C(=O)C23COC3)c1 [compound 191],0.1 to 1,
